# Assay results: PubChem BioAssay (NCI)
#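 Method: 48-hour compound exposure of cells in 96-well plates, five concentrations, linear interpolation of endpoints. TGI denotes the concentration required for complete inhibition of growth.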
# Key:
# Assay in all cases: NCI-60 cell line screen, 48 h
# TK-10 renal = system: TK-10 renal
# HOP-62 NSCLC = system: HOP-62 NSCLC
# DMS 273 small cell lung = system: DMS 273 small cell lung
# CCRF-CEM leukemia = system: CCRF-CEM leukemia
# HL-60(TB) leukemia = system: HL-60(TB) leukemia
# DMS 114 small cell lung = system: DMS 114 small cell lung
# RPMI-8226 leukemia = system: RPMI-8226 leukemia
# SK-MEL-28 melanoma = system: SK-MEL-28 melanoma
# SNB-19 CNS = system: SNB-19 CNS
# SNB-78 CNS = system: SNB-78 CNS
# MOLT-4 leukemia = system: MOLT-4 leukemia
# HOP-92 NSCLC = system: HOP-92 NSCLC
# UACC-62 melanoma = system: UACC-62 melanoma
# KM20L2 colon = system: KM20L2 colon
# SK-OV-3 ovarian = system: SK-OV-3 ovarian
# U251 CNS = system: U251 CNS
# SNB-75 CNS = system: SNB-75 CNS
# SW-620 colon = system: SW-620 colon
# CAKI-1 renal = system: CAKI-1 renal
# HT29 colon = system: HT29 colon
# EKVX NSCLC = system: EKVX NSCLC
# LOX IMVI melanoma = system: LOX IMVI melanoma
# A549 NSCLC = system: A549 NSCLC
# K-562 leukemia = system: K-562 leukemia
# M14 melanoma = system: M14 melanoma
# IGROV1 ovarian = system: IGROV1 ovarian
# DLD-1 colon = system: DLD-1 colon
# HCT-15 colon = system: HCT-15 colon
# OVCAR-8 ovarian = system: OVCAR-8 ovarian
# ACHN renal = system: ACHN renal
# COLO 205 colon = system: COLO 205 colon
# OVCAR-3 ovarian = system: OVCAR-3 ovarian
# OVCAR-4 ovarian = system: OVCAR-4 ovarian
# HCT-116 colon = system: HCT-116 colon
# MALME-3M melanoma = system: MALME-3M melanoma
# UO-31 renal = system: UO-31 renal
# NCI-H460 lung = system: NCI-H460 lung
# SF-539 CNS = system: SF-539 CNS
# SK-MEL-5 melanoma = system: SK-MEL-5 melanoma
# SN12C renal = system: SN12C renal
# SF-295 CNS = system: SF-295 CNS
# HOP-18 NSCLC = system: HOP-18 NSCLC
# UACC-257 melanoma = system: UACC-257 melanoma
# A498 renal = system: A498 renal
# SK-MEL-2 melanoma = system: SK-MEL-2 melanoma
# NCI-H23 lung = system: NCI-H23 lung
# LXFL 529 NSCLC = system: LXFL 529 NSCLC
# SF-268 CNS = system: SF-268 CNS
# XF 498 CNS = system: XF 498 CNS
# OVCAR-5 ovarian = system: OVCAR-5 ovarian
# NCI-H522 lung = system: NCI-H522 lung
# KM12 colon = system: KM12 colon
# 786-0 renal = system: 786-0 renal
# NCI-H226 lung = system: NCI-H226 lung
# HCC-2998 colon = system: HCC-2998 colon
# M19-MEL melanoma = system: M19-MEL melanoma
# RXF 393 renal = system: RXF 393 renal
compound,measurement,setting,value
COc1cc(C2C(C(=O)O)=C(CO)Oc3cc4c(cc32)OCO4)cc(OC)c1O (stereo not given),TGI,TK-10 renal,> 100 µM
same,TGI,HOP-62 NSCLC,> 100 µM
same,TGI,DMS 273 small cell lung,> 100 µM
same,TGI,CCRF-CEM leukemia,> 100 µM
same,TGI,HL-60(TB) leukemia,> 100 µM
same,TGI,DMS 114 small cell lung,> 100 µM
same,TGI,RPMI-8226 leukemia,> 100 µM
same,TGI,SK-MEL-28 melanoma,> 100 µM
same,TGI,SNB-19 CNS,> 100 µM
same,TGI,SNB-78 CNS,> 100 µM
same,TGI,MOLT-4 leukemia,> 100 µM
same,TGI,HOP-92 NSCLC,> 100 µM
same,TGI,UACC-62 melanoma,> 100 µM
same,TGI,KM20L2 colon,> 100 µM
same,TGI,SK-OV-3 ovarian,> 100 µM
same,TGI,U251 CNS,> 100 µM
same,TGI,SNB-75 CNS,> 100 µM
same,TGI,SW-620 colon,> 100 µM
same,TGI,CAKI-1 renal,> 100 µM
same,TGI,HT29 colon,> 100 µM
same,TGI,EKVX NSCLC,> 100 µM
same,TGI,LOX IMVI melanoma,> 100 µM
same,TGI,A549 NSCLC,> 100 µM
same,TGI,K-562 leukemia,> 100 µM
same,TGI,M14 melanoma,> 100 µM
same,TGI,IGROV1 ovarian,> 100 µM
same,TGI,DLD-1 colon,> 100 µM
same,TGI,HCT-15 colon,> 100 µM
same,TGI,OVCAR-8 ovarian,> 100 µM
same,TGI,ACHN renal,> 100 µM
same,TGI,COLO 205 colon,> 100 µM
same,TGI,OVCAR-3 ovarian,> 100 µM
same,TGI,OVCAR-4 ovarian,> 100 µM
same,TGI,HCT-116 colon,> 100 µM
same,TGI,MALME-3M melanoma,> 100 µM
same,TGI,UO-31 renal,> 100 µM
same,TGI,NCI-H460 lung,> 100 µM
same,TGI,SF-539 CNS,> 100 µM
same,TGI,SK-MEL-5 melanoma,> 100 µM
same,TGI,SN12C renal,> 100 µM
same,TGI,SF-295 CNS,> 100 µM
same,TGI,HOP-18 NSCLC,> 100 µM
same,TGI,UACC-257 melanoma,> 100 µM
O=C(CSc1nnc(-c2ccc(N=Cc3ccc(Cl)cc3)cc2)o1)Nc1ccc(Cl)cc1Cl,TGI,TK-10 renal,> 100 µM
same,TGI,A498 renal,> 100 µM
same,TGI,HOP-62 NSCLC,74.5 µM
same,TGI,SK-MEL-2 melanoma,47.3 µM
same,TGI,DMS 273 small cell lung,88.7 µM
same,TGI,CCRF-CEM leukemia,> 100 µM
same,TGI,HL-60(TB) leukemia,> 100 µM
same,TGI,NCI-H23 lung,59.3 µM
same,TGI,RPMI-8226 leukemia,> 100 µM
same,TGI,SK-MEL-28 melanoma,74.6 µM
same,TGI,SNB-19 CNS,85 µM
same,TGI,SNB-78 CNS,> 100 µM
same,TGI,MOLT-4 leukemia,66 µM
same,TGI,HOP-92 NSCLC,50.5 µM
same,TGI,LXFL 529 NSCLC,96.9 µM
same,TGI,SF-268 CNS,64.9 µM
same,TGI,UACC-62 melanoma,60.3 µM
same,TGI,XF 498 CNS,47.9 µM
same,TGI,KM20L2 colon,> 100 µM
same,TGI,SK-OV-3 ovarian,76.7 µM
same,TGI,U251 CNS,69.9 µM
same,TGI,SNB-75 CNS,72.7 µM
same,TGI,OVCAR-5 ovarian,> 100 µM
same,TGI,SW-620 colon,> 100 µM
same,TGI,NCI-H522 lung,85.9 µM
same,TGI,CAKI-1 renal,> 100 µM
same,TGI,HT29 colon,60.5 µM
same,TGI,EKVX NSCLC,> 100 µM
same,TGI,A549 NSCLC,> 100 µM
same,TGI,K-562 leukemia,> 100 µM
same,TGI,M14 melanoma,36.1 µM
same,TGI,IGROV1 ovarian,58.7 µM
same,TGI,KM12 colon,72.4 µM
same,TGI,DLD-1 colon,60.5 µM
same,TGI,HCT-15 colon,52.8 µM
same,TGI,OVCAR-8 ovarian,83.7 µM
same,TGI,ACHN renal,> 100 µM
same,TGI,COLO 205 colon,78 µM
same,TGI,786-0 renal,51.8 µM
same,TGI,NCI-H226 lung,58.2 µM
same,TGI,OVCAR-4 ovarian,88 µM
same,TGI,HCT-116 colon,38.1 µM
same,TGI,MALME-3M melanoma,47.5 µM
same,TGI,UO-31 renal,98.7 µM
same,TGI,NCI-H460 lung,> 100 µM
same,TGI,SF-539 CNS,51.1 µM
same,TGI,SK-MEL-5 melanoma,63.2 µM
same,TGI,SN12C renal,49 µM
same,TGI,SF-295 CNS,68.1 µM
same,TGI,HOP-18 NSCLC,39.8 µM
same,TGI,UACC-257 melanoma,71.1 µM
same,TGI,HCC-2998 colon,> 100 µM
same,TGI,M19-MEL melanoma,88.5 µM
same,TGI,RXF 393 renal,> 100 µM
O=C(COc1ccc2c(=O)cc(-c3ccccc3)oc2c1)N1CCN(c2ccccc2)CC1,TGI,TK-10 renal,> 100 µM
same,TGI,HOP-62 NSCLC,> 100 µM
same,TGI,SK-MEL-2 melanoma,77.8 µM
same,TGI,CCRF-CEM leukemia,> 100 µM
same,TGI,HL-60(TB) leukemia,87.3 µM
same,TGI,DMS 114 small cell lung,> 100 µM
same,TGI,NCI-H23 lung,> 100 µM
same,TGI,RPMI-8226 leukemia,> 100 µM
same,TGI,SK-MEL-28 melanoma,> 100 µM
same,TGI,SNB-19 CNS,> 100 µM
same,TGI,SNB-78 CNS,> 100 µM
same,TGI,MOLT-4 leukemia,> 100 µM
same,TGI,LXFL 529 NSCLC,> 100 µM
same,TGI,SF-268 CNS,> 100 µM
same,TGI,UACC-62 melanoma,> 100 µM
same,TGI,KM20L2 colon,> 100 µM
same,TGI,SK-OV-3 ovarian,> 100 µM
same,TGI,U251 CNS,> 100 µM
same,TGI,SNB-75 CNS,> 100 µM
same,TGI,OVCAR-5 ovarian,> 100 µM
same,TGI,SW-620 colon,> 100 µM
same,TGI,NCI-H522 lung,93.8 µM
same,TGI,EKVX NSCLC,> 100 µM
same,TGI,LOX IMVI melanoma,> 100 µM
same,TGI,A549 NSCLC,> 100 µM
same,TGI,K-562 leukemia,> 100 µM
same,TGI,M14 melanoma,> 100 µM
same,TGI,IGROV1 ovarian,> 100 µM
same,TGI,KM12 colon,> 100 µM
same,TGI,HCT-15 colon,> 100 µM
same,TGI,OVCAR-8 ovarian,> 100 µM
same,TGI,ACHN renal,> 100 µM
same,TGI,COLO 205 colon,> 100 µM
same,TGI,786-0 renal,> 100 µM
same,TGI,NCI-H226 lung,> 100 µM
same,TGI,OVCAR-3 ovarian,> 100 µM
same,TGI,HCT-116 colon,> 100 µM
same,TGI,MALME-3M melanoma,> 100 µM
same,TGI,UO-31 renal,> 100 µM
same,TGI,NCI-H460 lung,> 100 µM
same,TGI,SF-539 CNS,> 100 µM
same,TGI,SK-MEL-5 melanoma,> 100 µM
same,TGI,SN12C renal,> 100 µM
same,TGI,SF-295 CNS,> 100 µM
same,TGI,HOP-18 NSCLC,> 100 µM
same,TGI,UACC-257 melanoma,> 100 µM
same,TGI,HCC-2998 colon,> 100 µM
same,TGI,M19-MEL melanoma,> 100 µM
same,TGI,RXF 393 renal,> 100 µM
CCN(CC)CSc1nc2ccccc2s1,TGI,TK-10 renal,> 100 µM
same,TGI,DMS 273 small cell lung,> 100 µM
same,TGI,CCRF-CEM leukemia,> 100 µM
same,TGI,HL-60(TB) leukemia,> 100 µM
same,TGI,DMS 114 small cell lung,> 100 µM
same,TGI,NCI-H23 lung,> 100 µM
same,TGI,RPMI-8226 leukemia,> 100 µM
same,TGI,SK-MEL-28 melanoma,> 100 µM
same,TGI,SNB-78 CNS,> 100 µM
same,TGI,MOLT-4 leukemia,> 100 µM
same,TGI,HOP-92 NSCLC,> 100 µM
same,TGI,LXFL 529 NSCLC,> 100 µM
same,TGI,UACC-62 melanoma,> 100 µM
same,TGI,XF 498 CNS,> 100 µM
same,TGI,SK-OV-3 ovarian,> 100 µM
same,TGI,SNB-75 CNS,> 100 µM
same,TGI,SW-620 colon,> 100 µM
same,TGI,NCI-H522 lung,> 100 µM
same,TGI,CAKI-1 renal,> 100 µM
same,TGI,HT29 colon,> 100 µM
same,TGI,EKVX NSCLC,> 100 µM
same,TGI,LOX IMVI melanoma,> 100 µM
same,TGI,A549 NSCLC,> 100 µM
same,TGI,K-562 leukemia,> 100 µM
same,TGI,M14 melanoma,> 100 µM
same,TGI,IGROV1 ovarian,> 100 µM
same,TGI,KM12 colon,> 100 µM
same,TGI,HCT-15 colon,> 100 µM
same,TGI,OVCAR-8 ovarian,> 100 µM
same,TGI,COLO 205 colon,> 100 µM
same,TGI,NCI-H226 lung,> 100 µM
same,TGI,OVCAR-3 ovarian,> 100 µM
same,TGI,OVCAR-4 ovarian,> 100 µM
same,TGI,SF-539 CNS,> 100 µM
same,TGI,SK-MEL-5 melanoma,> 100 µM
same,TGI,SN12C renal,> 100 µM
same,TGI,UACC-257 melanoma,> 100 µM
same,TGI,HCC-2998 colon,> 100 µM
same,TGI,M19-MEL melanoma,> 100 µM
